For this test, the system named is CD45+ cells. Put plainly: CD45+ cell trafficking between maternal/fetal compartments in the OOC device in response to an infectious stimulus. Particulars: LPS as infectious stimulus, preliminary study. It counts as cell-based, human. The protocol:
Immune cell migration and phenotyping by Cytometry by Time Of Flight (CyTOF) analysis: Preliminary CD45+ cell trafficking studies between the maternal/fetal compartments in the OOC device in response to an infectious stimulus (lipopolysaccharide [LPS]), to mimic bacterial infection, was conducted. In this model, LPS increased CD45+ cell influx into the fetal side and increased inflammation. Similar experiments can be repeated, and cell marker specificity can be tested through flow cytometry and immunocytochemistry^178. To study immunophenotypic changes associated with migrating immune cells, a multiplex tissue imaging technology can be used, e.g., Imaging Mass Cytometry (IMC) at an unprecedented resolution^179. IMC allows highly multiplexed, metal-based detection of 30 different protein markers at the same time, and enables high-dimensional, single-cell analysis of complex cell types without any background noise^180-184 (see Table 3 for a list of key/exemplary antibodies). For IMC, the top PDMS part can be removed so that fixed/attached cells stay on the histological glass slides on which the OOC device is built. IMC technology can be introduced to the OOC field, which allows for the analysis of cellular-level changes in OOC.

For lipopolysaccharide [LPS], the “CD45+ cell influx into the fetal side” value is given as “increased” and the inflammation entry is reported as “increased”.

The values are drawn from US20260117171A1, “Human Pregnancy on a Chip for Normal and Disease Biomarker Discovery and Preclinical Trials” (Board of Regents, The University of Texas System, priority 2023, published 2026).
